How the values were obtained:
[1] = cited from earlier work
[2] = Abstinence syndrome / physical dependency on withdrawal after repeated administration (body weight decrease); assay type: in vivo, male rats of Wistar strain; set-up: key to Abstinence syndrome: +++: severe decrease (about 5% decrease); ++: moderate decrease; +: mild decrease; -: no decrease; settings: rats; for Abstinence syndrome: subcutaneous twice a day, body weight decrease on the day after drug withdrawal; for physical dependency: orally or subcutaneously everyday for over one month
Procedure: (§1) On account of this addiction liability, these analgesics are severely restricted in a therapeutic use.
Note: Groups of male rats of Wistar strain (body weight, 150 g), each group consisting of 20 male rats, were subcutaneously given the test compound twice a day for 4 consecutive weeks. On the next day after drug withdrawal, the body weight was measured. The symbols have the following meanings: +++, severe decrease (about 5% decrease); ++, moderate decrease; +, mild decrease; -, no decrease.

[3] = Subcutaneous writhing test (acetic acid); assay type: in vivo, mice; settings: for ED50: Mus musculus, sc, mice, subcutaneous 20 minutes before acetic acid, Litchfeld-Wilcoxon's method; for analgesic activity: in words; for analgesic action compared with pentazocine: subcutaneous writhing test, versus pentazocine
Procedure: […]. Note: The test was based on the specific anatagonism of the test compound to the typical syndrome produced by intraperitoneal injection of 0.6% aqueous acetic acid. The syndrome was characterized by intermittent contractions of the abdomen, twisting and turning of the trunk and extension of the hind legs. A group of 5 mice was used for each dose level. The test compound was administered subcutaneously 20 minutes before the injection of acetic acid. […] The ED50 value was calculated according to the Litchfeld-Wilcoxon's method.

[4] = Addiction / drug dependency in (long term) animal tests; assay type: in vivo
From the text: Hitherto, many benzomorphan derivatives (e.g., phenazocine, pentazocine) have been developed as analgesic drugs but most of them have addiction and produce narcotic symptoms at their usual dosages.
as §1

SMILES	analgesic activity (known) ([1]; U.S. Pat. No. 3,138,603)	addiction liability (known) ([1]; prior benzomorphan derivatives)	Abstinence syndrome ([2]; 20 mg/kg/day for 4 weeks)	ED50 [3] [mg/kg]	analgesic activity [3]	analgesic action compared with pentazocine [3]	addiction in long term animal tests [4]	physical dependency [2]	Abstinence syndrome ([2]; 40 mg/kg/day for 4 weeks)
CC1C2Cc3ccc(O)cc3C1(C)CCN2C (stereo not drawn) [2'-Hydroxy-2,5,9-trimethyl-6,7-benzomorphan]	potent analgesic activity	show an addition liability	++						
CC(C)SCCN1CCC2(C)c3cc(O)ccc3CC1C2C (stereo not drawn) [2'-Hydroxy-2-(β-isopropylthioethyl)-5,9-dimethyl-6,7-benzomorphan]				3.6	strong analgesic activity	much more potent analgesic action than pentazocine			
CCC1C2Cc3ccc(O)cc3C1(CC)CCN2CCSC (stereo not drawn) [2'-Hydroxy-2-(β-methylthioethyl)-5,9-diethyl-6,7-benzomorphan]							do not show addiction	did not produce any physical dependency	-
CSCCN1CCC2(C)c3cc(O)ccc3CC1C2C (stereo not drawn) [2'-Hydroxy-2-(β-methylthioethyl)-5,9-dimethyl-6,7-benzomorphan]				3.1	strong analgesic activity	much more potent analgesic action than pentazocine	do not show addiction	did not produce any physical dependency	-
CCC12CCN(CCSC)C(Cc3ccc(O)cc31)C2 (stereo not drawn) [2'-Hydroxy-2-(β-methylthioethyl)-5-ethyl-6,7-benzomorphan]			-	0.34	strong analgesic activity	much more potent analgesic action than pentazocine	do not show addiction	did not produce any physical dependency	
